Laboratory results: patent EP4534147A1, “STING ANTAGONIST COMPOUNDS” (Sulis Therapeutics ApS, priority 2023, dated 2025)

Key:
STING = biological target: T1, STING (Homo sapiens, UniProt Q86WV6); assay: Human FB STING antagonist assay (IFN-a/b release); assay type: cell-based; details: Human skin fibroblasts, 2h pre-treatment, 300 nM GSK STING agonist (CAS number: 2138299-34-8) for 20 h, release of IFN-a/b by HEK-Blue IFN-α/β bioassay
T1 construct: endogenous in cells; host or cells: human skin fibroblasts
Procedure: STING antagonist activity can be determined by a human fibroblast antagonist assay. For this, human skin fibroblasts are pre-treated for 2h with a serial dilution of the compound, and are then stimulated for 20 hours with 300 nM STING agonist (e.g. from GSK, CAS number: 2138299-34-8). Supernatants are then harvested and assessed for IFN-a/b release, which indicates STING activation. IFN-a/b concentration in the supernatant is determined, e.g. using an IFN-α/β bioassay. IC50 values are calculated using a non-linear regression fitting, variable slope (4 parameters).
Human skin fibroblasts were pre-treated for 2h with a serial dilution of test compound followed by stimulation with mock or 300 nM GSK STING agonist (CAS number: 2138299-34-8). Supernatants were harvested after 20 h of STING agonist stimulation. Release of IFN-a/b was determined using HEK-Blue IFN-α/β bioassay (Invivogen). Cellular viability was assessed using Alamar Blue HS assay. IC50 values were estimated using a non-linear regression fitting, variable slope (4 parameters) in GraphPad Prism 9.3.1.

[1] = biological target: C-terminal domain (CTD) of human STING (Homo sapiens, UniProt Q86WV6); assay: STING binding FP assay II (as FP assay I, lower STING concentration); design: recombinant human STING protein (155-379); details: 7 nM STING in buffer A, 4 nM fluorescein-labelled STING ligand (Probe 1)
Procedure: The interaction between molecules and the C-terminal domain (CTD) of human STING was evaluated using a competition binding assay. In this assay, recombinant human STING protein (155-379) and a STING binding fluorescent probe were employed. Upon binding of the probe to STING, the rotation of the fluorescent probe is slowed due to the larger molecular size of the protein-bound complex. As a result, emitted light retains its plane of polarization, leading to an increase in fluorescence polarization. Molecules competing for the probe binding site displace the probe, which leads to rapid randomization of the polarization plane of the emitted light and a subsequent decrease in measured fluorescence polarization signal. Change in polarization was measured, allowing a comparative evaluation of the binding affinities of different compounds to the target protein.
The assay was performed in 96-well plates (ThermoFisher, cat.# 237108) containing 100 µl : 10 µL test compound in 10% DMSO and buffer A (150 mM NaCl, 50 mM HEPES pH 7.5, 1 mM DTT) + 90 µL prepared master mix solution of: 4 nM fluorescein-labelled STING ligand (Probe 1; synthesis described above) in buffer A + 0.055% Tween-20 (v/v) and 35 nM STING in buffer A. Post mixing, plates were agitated at 600 rpm and incubated for 20 min at room temperature. Subsequent measurements of the fluorescence polarization signal were made on a BioTek Synergy-H1 plate reader, using a polarization filter; excitation: 485/20 nm, emission: 528/20 nm) with a gain-setting of 75. IC50 values were determined using a standard non-linear regression four-parameter curve fit in Graphpad Prism.
The procedure for STING binding FP assay II is the same as described for STING binding FP assay I, except for a lower STING concentration. In STING binding FP assay II, a concentration of 7 nM STING in buffer A was used.

Chain of C-terminal domain (CTD) of human STING (Q86WV6 155-379): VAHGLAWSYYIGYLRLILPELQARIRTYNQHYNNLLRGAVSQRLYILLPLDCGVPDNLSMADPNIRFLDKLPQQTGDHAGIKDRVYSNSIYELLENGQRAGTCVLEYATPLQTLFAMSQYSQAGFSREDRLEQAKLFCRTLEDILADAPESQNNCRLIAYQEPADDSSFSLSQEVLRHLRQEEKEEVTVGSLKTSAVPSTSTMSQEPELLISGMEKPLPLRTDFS
T1 sequence (Q86WV6 whole entry): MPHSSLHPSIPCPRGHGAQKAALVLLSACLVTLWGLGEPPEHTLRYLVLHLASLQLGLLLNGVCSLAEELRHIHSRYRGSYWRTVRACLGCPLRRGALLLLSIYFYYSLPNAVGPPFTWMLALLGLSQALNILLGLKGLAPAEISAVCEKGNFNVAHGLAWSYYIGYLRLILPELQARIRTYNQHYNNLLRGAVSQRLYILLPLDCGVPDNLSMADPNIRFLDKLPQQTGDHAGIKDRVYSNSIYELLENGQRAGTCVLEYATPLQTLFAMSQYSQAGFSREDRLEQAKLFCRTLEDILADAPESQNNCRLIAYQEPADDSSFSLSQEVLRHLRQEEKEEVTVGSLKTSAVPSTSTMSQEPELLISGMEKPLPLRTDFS

| IC50 (STING) [nM] | IC50 [1] [nM] | Structure (SMILES) |
| --- | --- | --- |
| 3200 | – | CCOC(=O)COC(CCn1c(NC(=O)c2cc(C)nn2CC)nc2cc(C(N)=O)ccc21)CCn1c(NC(=O)c2cc(C)nn2CC)nc2cc(C(N)=O)ccc21 [Example 1, Ethyl {3-[5-carbamoyl-2-(1-ethyl-3-methyl-5-pyrazolylcarbonylamino)-1H-1,3-benzimidazol-1-yl]-1-{2-[5-carbamoyl-2-(1-ethyl-3-methyl-5-pyrazolylcarbonylamino)-1H-1,3-benzimidazol-1-yl]ethyl}propoxy}acetate] |
| 9800 | 1.7 | CCn1nc(C)cc1C(=O)N=c1n(C)c2cc(C(N)=O)ccc2n1CCC(CCn1c(=NC(=O)c2cc(C)nn2CC)n(C)c2cc(C(N)=O)ccc21)OCC(=O)N1CCN(C(C)=O)CC1 (stereo not shown) [Example 12, 1-{3-[2-(4-Acetyl-1-piperazinyl)-2-oxoethoxy]-5-{5-carbamoyl-2-[(1-ethyl-3-methyl-5-pyrazolyl)carbonylimino]-3-methyl-2,3-dihydro-1H-1,3-benzimidazol-1-yl}pentyl}-2-[(1-ethyl-3-methyl-5-pyrazolyl)carbonylimino]-3-methyl-2,3-dihydro-1H-1,3-benzimidazole-5-carboxamide] |
| 7800 | 2 | CCn1nc(C)cc1C(=O)N=c1n(C)c2cc(C(N)=O)ccc2n1CCC(CCn1c(=NC(=O)c2cc(C)nn2CC)n(C)c2cc(C(N)=O)ccc21)OCC(=O)N(CCOC)CCOC (stereo not shown) [Example 13, 1-(3-{[Bis(2-methoxyethyl)carbamoyl]methoxy}-5-{5-carbamoyl-2-[(1-ethyl-3-methyl-5-pyrazolyl)carbonylimino]-3-methyl-2,3-dihydro-1H-1,3-benzimidazol-1-yl}pentyl)-2-[(1-ethyl-3-methyl-5-pyrazolyl)carbonylimino]-3-methyl-2,3-dihydro-1H-1,3-benzimidazole-5-carboxamide] |
| – | 4.8 | CCn1nc(C)cc1C(=O)N=c1n(C)c2cc(C(N)=O)ccc2n1CCC(CCn1c(=NC(=O)c2cc(C)nn2CC)n(C)c2cc(C(N)=O)ccc21)OCC(=O)N(C(C)C)C(C)C (stereo not shown) [Example 21, 1-(3-{[Bis(isopropyl)carbamoyl]methoxy}-5-{5-carbamoyl-2-[(1-ethyl-3-methyl-5-pyrazolyl)carbonylimino]-3-methyl-2,3-dihydro-1H-1,3-benzimidazol-1-yl}pentyl)-2-[(1-ethyl-3-methyl-5-pyrazolyl)carbonylimino]-3-methyl-2,3-dihydro-1H-1,3-benzimidazole-5-carboxamide] |
| – | 6.3 | CCn1nc(C)cc1C(=O)N=c1n(C)c2cc(C(N)=O)ccc2n1CCC(CCn1c(=NC(=O)c2cc(C)nn2CC)n(C)c2cc(C(N)=O)ccc21)OCC(=O)n1nc(N)cc1C (stereo not shown) [Example 23, 1-{3-[2-(3-Amino-5-methyl-1-pyrazolyl)-2-oxoethoxy]-5-{5-carbamoyl-2-[(1-ethyl-3-methyl-5-pyrazolyl)carbonylimino]-3-methyl-2,3-dihydro-1H-1,3-benzimidazol-1-yl}pentyl}-2-[(1-ethyl-3-methyl-5-pyrazolyl)carbonylimino]-3-methyl-2,3-dihydro-1H-1,3-benzimidazole-5-carboxamide] |
| – | 4.8 | CCn1nc(C)cc1C(=O)N=c1n(C)c2cc(C(N)=O)ccc2n1CCC(CCn1c(=NC(=O)c2cc(C)nn2CC)n(C)c2cc(C(N)=O)ccc21)OCC(=O)n1nc(C)cc1N (stereo not shown) [Example 24, 1-{3-[2-(5-Amino-3-methyl-1-pyrazolyl)-2-oxoethoxy]-5-{5-carbamoyl-2-[(1-ethyl-3-methyl-5-pyrazolyl)carbonylimino]-3-methyl-2,3-dihydro-1H-1,3-benzimidazol-1-yl}pentyl}-2-[(1-ethyl-3-methyl-5-pyrazolyl)carbonylimino]-3-methyl-2,3-dihydro-1H-1,3-benzimidazole-5-carboxamide] |
| – | 4.6 | CCn1nc(C)cc1C(=O)N=c1n(C)c2cc(C(N)=O)ccc2n1CCC(CCn1c(=NC(=O)c2cc(C)nn2CC)n(C)c2cc(C(N)=O)ccc21)OCC(=O)N1CCC[C@H]1c1ccccc1 (stereo partly drawn) [Example 25, 1-(3-{2-[(S)-2-Phenyl-1-pyrrolidinyl]-2-oxoethoxy}-5-{5-carbamoyl-2-[(1-ethyl-3-methyl-5-pyrazolyl)carbonylimino]-3-methyl-2,3-dihydro-1H-1,3-benzimidazol-1-yl}pentyl)-2-[(1-ethyl-3-methyl-5-pyrazolyl)carbonylimino]-3-methyl-2,3-dihydro-1H-1,3-benzimidazole-5-carboxamide] |
| 1400 | 3.5 | CCn1nc(C)cc1C(=O)N=c1n(C)c2cc(C(N)=O)ccc2n1CCC(CCn1c(=NC(=O)c2cc(C)nn2CC)n(C)c2cc(C(N)=O)ccc21)OCC(=O)N1CCC[C@H]1C(=O)N1CCc2cc(OC)ccc2C1 (stereo partly drawn) [Example 26, 1-[3-(2-{(S)-2-[(6-Methoxy-1,2,3,4-tetrahydro-2-isoquinolyl)carbonyl]-1-pyrrolidinyl}-2-oxoethoxy)-5-{5-carbamoyl-2-[(1-ethyl-3-methyl-5-pyrazolyl)carbonylimino]-3-methyl-2,3-dihydro-1H-1,3-benzimidazol-1-yl}pentyl]-2-[(1-ethyl-3-methyl-5-pyrazolyl)carbonylimino]-3-methyl-2,3-dihydro-1H-1,3-benzimidazole-5-carboxamide] |
| – | 3.7 | CCn1nc(C)cc1C(=O)N=c1n(C)c2cc(C(N)=O)ccc2n1CCC(CCn1c(=NC(=O)c2cc(C)nn2CC)n(C)c2cc(C(N)=O)ccc21)OCC(=O)N1CCC[C@@H]1c1cc(F)ccc1F (stereo partly drawn) [Example 27, 1-(3-{2-[(R)-2-(2,5-Difluorophenyl)-1-pyrrolidinyl]-2-oxoethoxy}-5-{5-carbamoyl-2-[(1-ethyl-3-methyl-5-pyrazolyl)carbonylimino]-3-methyl-2,3-dihydro-1H-1,3-benzimidazol-1-yl}pentyl)-2-[(1-ethyl-3-methyl-5-pyrazolyl)carbonylimino]-3-methyl-2,3-dihydro-1H-1,3-benzimidazole-5-carboxamide] |
| 3900 | 8.4 | CCn1nc(C)cc1C(=O)N=c1n(C)c2cc(C(N)=O)ccc2n1CCC(CCn1c(=NC(=O)c2cc(C)nn2CC)n(C)c2cc(C(N)=O)ccc21)OCC(=O)N1CCC[C@H]1c1nnn[nH]1 (stereo partly drawn) [Example 28, 1-(3-{2-[(S)-2-(1H-Tetrazol-5-yl)-1-pyrrolidinyl]-2-oxoethoxy}-5-{5-carbamoyl-2-[(1-ethyl-3-methyl-5-pyrazolyl)carbonylimino]-3-methyl-2,3-dihydro-1H-1,3-benzimidazol-1-yl}pentyl)-2-[(1-ethyl-3-methyl-5-pyrazolyl)carbonylimino]-3-methyl-2,3-dihydro-1H-1,3-benzimidazole-5-carboxamide] |

| Structure (SMILES) | IC50 (STING) [nM] | IC50 [1] [nM] |
| --- | --- | --- |
| CCn1nc(C)cc1C(=O)N=c1n(C)c2cc(C(N)=O)ccc2n1CCC(CCn1c(=NC(=O)c2cc(C)nn2CC)n(C)c2cc(C(N)=O)ccc21)OCC(=O)Nc1cc(C)[nH]n1 (stereo not shown) [Example 22, 1-{3-[(N-5-Methyl-3-pyrazolylcarbamoyl)methoxy]-5-{5-carbamoyl-2-[(1-ethyl-3-methyl-5-pyrazolyl)carbonylimino]-3-methyl-2,3-dihydro-1H-1,3-benzimidazol-1-yl}pentyl}-2-[(1-ethyl-3-methyl-5-pyrazolyl)carbonylimino]-3-methyl-2,3-dihydro-1H-1,3-benzimidazole-5-carboxamide] | 6000 | 12.8 |
